Experiments:
ECV304 = assay: TUNEL / propidium iodide flow cytometry, ECV304; assay type: cell-based, human; conditions: ECV304, 6 hours after treatment
Protocol: (§1) In the second method, DNA fragmentation was detected via TUNEL assay according to the manufacturer's instructions. With this methodology, 2×10^6 cells were fixed with 2% paraformaldehyde, permeabilized with 0.1% Triton X-100/0.1% citrate, incubated at 37° C. with terminal deoxynucleotidyl transferase and FITC-dUTP, rinsed and analyzed by flow cytometry. Enhanced FITC signal indicates apoptosis-specific DNA fragmentation. Gavriali, et al, "Identification of programmed cell death in situ via specific labeling of nuclear DNA fragmentation," J Cell Biol 119:493 (1992). Parallel aliquots of unfixed cells were treated with PI and FITC-conjugated anti-CD14 and analyzed by flow cytometry, in order to identify cells with permeable cell membranes (since PI binds to DNA but is excluded from cells with intact plasma membranes) and also to determine the cell-specificity of the apoptotic signal.
(§2) In another study, TUNEL assays were performed on all cell lines 6 hours after cells were initially exposed to taurolidine (cells were treated for 4 hours, rinsed, and then incubated for 2 more hours before TUNEL assay was performed).
. Taurolidine and anisomycin induced apoptosis in MM6, HL-60, and Jurkat cells (Table VIII). MM6 and HL-60 cells were similarly effected, with >80% TUNEL-positive cells after 6 hours. […]
Data are percent of total cell-size events, and are expressed as mean ± […]

MM6 cells = assay: DNA fragmentation, agarose gel electrophoresis, MM6; assay type: cell-based, human
Protocol: FIG. 13 is an agarose gel depicting DNA fragmentation in response to taurolidine treatment as determined by assay procedures. MM6 cells were incubated with taurolidine or vehicle in RPMI+10% BCS for four hours. Cells were harvested and low molecular weight DNA extracted as described below. C=control cells without taurolidine or vehicle treatment; T=treated with 50 μg/ml taurolidine; V=treated with vehicle alone; and MW=molecular weight markers.
Following treatment with either taurolidine or the vehicle solution, cell death was assessed in one of two ways. In the first method, the DNA fragmentation pattern characteristic of apoptosis was detected by extracting low molecular weight DNA from cells using a phosphate-citrate buffer (Darzynkiewicz, et al., "Assays of cell viability: discrimination of cells dying by apoptosis," Methods Cell Biol 41:15 (1994)) and subjecting the extracted DNA to agarose gel electrophoresis.
Apoptosis is associated with fragmentation of genomic DNA in the internucleosomal linker regions, which can be visualized as a characteristic ladder of DNA fragments upon gel electrophoresis. Arends, M. J. and Wyllie, A. H., "Apoptosis: mechanisms and roles in pathology," Int Rev Exp Path 32:223 (1991). Accordingly, low molecular weight DNA was extracted from taurolidine-treated MM6 cells and subjected to electrophoresis in agarose gels.

K-562 = assay: LDH release (cell membrane integrity), K-562; assay type: cell-based; conditions: Homo sapiens, K562, 4 h, read-out: LDH (% of total)
Protocol: FIGS. 6A and 6B depict cell viability and growth rates for K562 cell line following taurolidine treatment, in terms of % trypan blue negative cells and % cell number, respectively. Cells were treated with various concentrations of taurolidine for 4 hours in AIM-V+0.01% BCS. After aliquots were collected for LDH assay, the remainder of the culture was rinsed in HBSS and resuspended in RPMI+10% BCS without taurolidine. Counts of trypan blue-negative cells (FIG. 6A), and total cell number (FIG. 6B), were recorded daily thereafter (with the measurement at Day 1 being made immediately after the 4 hour taurolidine treatment). Conditions were: no treatment (open circles); 25 μg/ml taurolidine (closed circles); 50 μg/ml taurolidine (open squares); 100 μg/ml taurolidine (closed squares); and vehicle alone (closed triangles). Doubling times were determined under each condition, and expressed as a percentage of the rate of doubling of untreated cells. […]
In these experiments, integrity of cell membranes following taurolidine treatment was assessed by exclusion of trypan blue and by measuring the release of LDH in MM6, K-562, HL-60, and REH cells. […] A parallel aliquot of cells was lysed by three cycles of freeze/thaw and the quantity of LDH released was taken to be 100%. […]
^a LDH was measured immediately after four hour taurolidine treatment.

HL-60 = assay: TUNEL / propidium iodide flow cytometry, HL-60; assay type: cell-based, human; conditions: for % TUNEL-positive: HL-60, taurolidine 100 μg/ml or anisomycin 1 μg/ml for 4 h, assayed at 6 hours, mean ± SD
Protocol: as §1
Consequently, TUNEL analysis was performed on PBMC at 3, 6, or 24 hours after treatment with 25 to 100 μg/ml taurolidine. Aliquots of harvested cells were also labeled with FITC-conjugated anti-CD14 antibodies and PI, which allowed identification of monocytes (CD14-positive cells) and cells with damaged cell membranes (PI-positive cells). […] Thus, nearly 75% of the monocytes were TUNEL-positive following treatment with 100 μg/ml taurolidine for six hours. Confirmation that the TUNEL-positive cells were monocytes was obtained by staining with FITC-conjugated anti-CD14.
as §2
. Taurolidine and anisomycin induced apoptosis in MM6, HL-60, and Jurkat cells (Table VIII). MM6 and HL-60 cells were similarly effected, with >80% TUNEL-positive cells after 6 hours. Jurkat cells were less sensitive, with approximately 50% of cells induced to undergo apoptosis after taurolidine treatment. After 6 hours, 73% of anisomycin-treated REH cells were apoptotic, with less than 20% of taurolidine-treated REH cells being TUNEL-positive. However, assay of cells 24 hours after
^a Analysis by flow cytometry after staining cells with propidium
iodide and processing for TUNEL.
Data are percent of total cell-size events, and are expressed as mean ±
Cells were treated for 4 hours with taurolidine (100 μg/ml) or
anisomycin (1 μg/ml), and then assayed at 6 hours.

[1] = tested on: leukemia-derived cell lines; assay: trypan blue exclusion, cell lines taken together; assay type: cell-based, human
Protocol: In these experiments, integrity of cell membranes following taurolidine treatment was assessed by exclusion of trypan blue and by measuring the release of LDH in MM6, K-562, HL-60, and REH cells. Since BCS contains significant amounts of LDH, these experiments were conducted on cells cultured in AIM-V+0.01% BCS. Four hour treatment of cells was conducted in AIM-V containing 0.01% BCS in order to allow subsequent LDH assay without interference from BCS (which occurs in when normal culture medium, containing 10% BCS, is used). Thus, MM6 cells (5×10^5 cells/ml) were treated with taurolidine for four hours in AIM-V+0.01% BCS, after which an aliquot of the cell suspension was removed for measurement of LDH release. A parallel aliquot of cells was lysed by three cycles of freeze/thaw and the quantity of LDH released was taken to be 100%. Remaining cells were rinsed in HBSS and resuspended in growth medium for measurement of growth rates.
HL-60 cells treated with 50 μl taurolidine. In these samples, LDH present in the culture medium was 8.3±2.3% of that released by completely lysed cells, compared with 2.3±0.8% measured in control cultures. […] After 4 hour treatment, cells were rinsed and returned to growth medium and monitored for viability and growth over the following 3 days. […]

Compound: O=S1(=O)CCN(CN2CCS(=O)(=O)NC2)CN1 [taurolidine, 4,4'-methylenebis(perhydro-1,2,4-thiadiazin 1,1-dioxide)]
- DNA fragmentation (TUNEL positivity) (ECV304): did not demonstrate evidence for fragmentation of DNA
- DNA fragmentation ladder (MM6 cells; MM6, 50 μg/ml taurolidine, 4 h, no LPS): prominent ladder pattern of DNA fragments
- DNA fragmentation ladder (MM6 cells; MM6, LPS present during taurolidine treatment): identical results
- cytotoxicity at 50 µg/mL (K-562; K-562, 50 μg/ml): 6%
- cytotoxicity at 100 µg/mL (K-562; K-562, 100 μg/ml): 8%
- % TUNEL-Negative Cells (HL-60; HL-60, 50 μg/ml, 3 hours): 35%
- % TUNEL-positive (HL-60): 91.9 ± 10.9%
- % TUNEL-positive (HL-60; listed as Taurolidine): > 80%
- cytotoxicity at 50 µg/mL (HL-60; Homo sapiens, HL-60, 3 h, read-out: % Propidium Iodide Positive Cells): 5%
- trypan blue assay on Day 1 ([1]; all samples, 25 to 100 μg/ml taurolidine, after 4 h treatment): equivalent to control
- progressive permeability to trypan blue over following days ([1]; leukemia-derived cell lines except K562, taurolidine 50 μg/ml or greater): permeability to trypan blue

From US6303596A, “Use of taurolidine for treatment of leukemias” (priority 2000, dated 2001)
